According to BindingDB's records for doi:10.1016/s0960-894x(02)00790-4 (British Biotech Pharmaceuticals, 2002):
Counter-ions that a name gives are not always drawn.

Biological target: Peptide deformylase (Escherichia coli) (UniProt P0A6K3)
Assay: Compound was evaluated for inhibition of peptide deformylase, PDF.Ni of Escherichia coli

Chain of Peptide deformylase (Escherichia coli) (P0A6K3 whole entry, looked up): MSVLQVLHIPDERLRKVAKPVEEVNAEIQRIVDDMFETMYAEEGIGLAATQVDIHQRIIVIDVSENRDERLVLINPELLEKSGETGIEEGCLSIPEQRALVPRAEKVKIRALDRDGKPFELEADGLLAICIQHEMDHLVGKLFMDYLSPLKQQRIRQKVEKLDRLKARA

Ki	Structure (SMILES)
19 nM	CCCC[C@H](CS)C(=O)N[C@@H](CCCCN)C(=O)Nc1ccc([N+](=O)[O-])cc1 [(S)-2-Mercaptomethyl-hexanoic acid [(S)-5-amino-1-(4-nitro-phenylcarbamoyl)-pentyl]-amide]

Biological target: Peptide deformylase (Escherichia coli) (UniProt P0A6K3)
Assay: as above
Remark: another data set of the same source

Ki	Structure (SMILES)
2500 nM	CCCCC(CS)C(=O)NC(CCCNC(=N)N)C(=O)OC (stereo not given) [5-Guanidino-2-(2-mercaptomethyl-hexanoylamino)-pentanoic acid methyl ester; TFA]

Biological target: Peptide deformylase (Escherichia coli) (UniProt P0A6K3)
Assay: as above
Remark: another data set of the same source

Structure (SMILES)	IC50
CCCCC(CP(=O)(O)O)C(=O)N[C@H](C(=O)N(C)C)C(C)(C)C (stereo partly drawn) [[2-((S)-1-Dimethylcarbamoyl-2,2-dimethyl-propylcarbamoyl)-hexyl]-phosphonic acid]	> 1000 nM
CCCC[C@H](CNC=O)C(=O)N[C@H](C(=O)N(C)C)C(C)(C)C [(R)-2-Formylaminomethyl-hexanoic acid ((S)-1-dimethylcarbamoyl-2,2-dimethyl-propyl)-amide]	> 1000 nM
CCCCC(C[PH](=O)O)C(=O)N[C@H](C(=O)N(C)C)C(C)(C)C (stereo partly drawn) [[2-((S)-1-Dimethylcarbamoyl-2,2-dimethyl-propylcarbamoyl)-hexyl]-phosphinic acid]	> 1000 nM

Next, values leading:

IC50	Structure (SMILES)
200 nM	CCCC[C@H](CC(=O)NN)C(=O)N[C@H](C(=O)N(C)C)C(C)(C)C [(R)-2-Hydrazinocarbonylmethyl-hexanoic acid ((S)-1-dimethylcarbamoyl-2,2-dimethyl-propyl)-amide]
> 1000 nM	CCCCC(CC(=N)NO)C(=O)N[C@H](C(=O)N(C)C)C(C)(C)C (stereo partly drawn) [(R)-2-(N-Hydroxycarbamimidoylmethyl)-hexanoic acid ((S)-1-dimethylcarbamoyl-2,2-dimethyl-propyl)-amide]
> 1000 nM	CCCC[C@H](CN(O)C(N)=O)C(=O)N[C@H](C(=O)N(C)C)C(C)(C)C [(2R)-2-{[(aminocarbonyl)(hydroxy)amino]methyl}-N-{(1S)-1-[(dimethylamino)carbonyl]-(2,2-dimethyl)-propyl}hexanamide]
> 1000 nM	CCCC[C@H](NCC(=O)O)C(=O)N[C@H](C(=O)N(C)C)C(C)(C)C [[(S)-1-((S)-1-Dimethylcarbamoyl-2,2-dimethyl-propylcarbamoyl)-pentylamino]-acetic acid]
1 nM	CCCC[C@H](CC(=O)NO)C(=O)N[C@H](C(=O)N(C)C)C(C)(C)C [(R)-2-Butyl-N*1*-((S)-1-dimethylcarbamoyl-2,2-dimethyl-propyl)-N*4*-hydroxy-succinamide]
